Like-named read-outs stand apart in the source and are kept apart here. Where a SMILES comes first, the peptide text is derived from it.
Experiments:
[1] = In vitro gastrointestinal digestion of the peptide; type: in vitro ADME
Experimental: Gastrointestinal digestion was evaluated according to the method of Dang et al. ([15]) and Mulet-Cabero et al. ([18]) with minor modification. Simulated gastric juice (pH 2.0) and simulated intestinal fluid mixture (pH 7.6) were added to peptide solution and incubated at 37°C for 2 h, respectively.

ACE = conditions: read-out: IC50 of ACE inhibition, cited from earlier work
From the text: Therefore, it was meaningful to study the ACE inhibitory activity of SASVIPVSAVRA. || Generally, the presence of amino acids (Val, Ile) with hydrophobic branches would increase the ACE inhibitory activity ([26]). Therefore, the Val residue and Ile residue in SASVIPVSAVRA may contribute to the ACE activity of the peptide. […] The peptide SASVIPVSAVRA isolated from the yak bone hydrolysate also contained the tripeptide above-mentioned (VIP). The ACE inhibitory activity may also be due to the presence of ACE inhibitor VIP in its structure. Howev ...

[2] = tested on: spontaneously hypertensive rats (SHRs); test: Antihypertensive effect in SHRs (tail-cuff SBP); type: in vivo, rat; conditions: oral, positive control group, 10 mg/kg BW, n = 6 per group
Experimental: The systolic blood pressure (SBP) changes in the SHRs were measured by the tail-cuff method to determine the antihypertensive effect of ser-ala-ser-val-ile-pro-val-ser-ala-val-arg-ala (SASVIPVSAVRA) in vivo. Twenty female SHRs, weighing 230 ± 15 g and the SBP exceeding 190 mmHg, were obtained from Beijing Vital River Laboratory Animal Technology Co., Ltd. (China).
The SHRs were free to eat and drink at 25 ± 4°C and a 40 ± 6% humidity. To get the rats to adapt to the environment, the systolic blood pressure was measured once a day for 1 week. After a week of adaptation, the SHRs were randomly divided into three groups with each group containing 6 SHRs: the control group (sterilized water), captopril group (10 mg/kg captopril BW), SASVIPVSAVRA (30 mg/kg SASVIPVSAVRA BW). The effect of ACE inhibitors on SBP were measured by the Softron BP non-invasive blood pressure monitor (Softron BP-2000, Tokyo, Japan) at 0, 2, 4, and 6 h after oral administration ([1]), The measurements were repeated five times, the recordings were reported as mean ± standard deviation (SD). All animal procedures used in this trial were approved by the Institutional Animal Care and Use Committee of Hangzhou Medical College (Approval No. ZJCLA-IACUC-20010014).

[3] = molecular target: T1, angiotensin-converting enzyme (ACE) (UniProt P12822)
T1 sequence: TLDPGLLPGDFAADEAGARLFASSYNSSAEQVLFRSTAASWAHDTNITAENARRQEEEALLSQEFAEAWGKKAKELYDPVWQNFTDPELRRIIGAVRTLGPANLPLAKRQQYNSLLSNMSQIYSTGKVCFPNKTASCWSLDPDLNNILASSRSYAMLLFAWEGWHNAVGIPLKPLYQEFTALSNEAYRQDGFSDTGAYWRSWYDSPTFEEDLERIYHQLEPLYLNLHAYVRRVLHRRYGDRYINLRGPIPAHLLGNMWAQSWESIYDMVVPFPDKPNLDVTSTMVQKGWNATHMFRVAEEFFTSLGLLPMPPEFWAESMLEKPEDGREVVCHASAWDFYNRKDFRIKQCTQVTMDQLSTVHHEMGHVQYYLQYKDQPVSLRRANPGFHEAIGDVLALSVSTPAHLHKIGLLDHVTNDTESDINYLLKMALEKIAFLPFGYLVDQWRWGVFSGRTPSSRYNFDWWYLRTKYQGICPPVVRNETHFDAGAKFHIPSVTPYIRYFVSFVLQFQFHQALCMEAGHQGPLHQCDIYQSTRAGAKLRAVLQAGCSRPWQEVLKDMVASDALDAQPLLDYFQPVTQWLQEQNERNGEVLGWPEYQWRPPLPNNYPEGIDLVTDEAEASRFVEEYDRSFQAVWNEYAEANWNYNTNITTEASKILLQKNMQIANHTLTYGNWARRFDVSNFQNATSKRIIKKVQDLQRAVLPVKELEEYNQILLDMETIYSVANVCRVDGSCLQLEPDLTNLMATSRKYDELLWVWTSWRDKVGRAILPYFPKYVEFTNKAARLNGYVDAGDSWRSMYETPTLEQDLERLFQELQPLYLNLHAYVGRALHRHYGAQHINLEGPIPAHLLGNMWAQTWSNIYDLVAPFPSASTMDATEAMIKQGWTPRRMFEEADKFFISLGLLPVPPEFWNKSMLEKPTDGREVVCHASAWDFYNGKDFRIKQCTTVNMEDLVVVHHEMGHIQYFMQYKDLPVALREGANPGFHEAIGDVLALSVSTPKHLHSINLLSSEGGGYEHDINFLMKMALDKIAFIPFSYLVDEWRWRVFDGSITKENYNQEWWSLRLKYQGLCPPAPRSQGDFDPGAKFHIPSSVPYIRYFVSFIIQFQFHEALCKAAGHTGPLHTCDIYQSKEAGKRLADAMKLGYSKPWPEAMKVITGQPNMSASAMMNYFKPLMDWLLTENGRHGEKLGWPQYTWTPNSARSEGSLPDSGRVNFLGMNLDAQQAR

With CC[C@H](C)[C@H](NC(=O)[C@@H](NC(=O)[C@H](CO)NC(=O)[C@H](C)NC(=O)[C@@H](N)CO)C(C)C)C(=O)N1CCC[C@H]1C(=O)N[C@H](C(=O)N[C@@H](CO)C(=O)N[C@@H](C)C(=O)N[C@H](C(=O)N[C@@H](CCCNC(=N)N)C(=O)N[C@@H](C)C(=O)O)C(C)C)C(C)C [SASVIPVSAVRA, ser-ala-ser-val-ile-pro-val-ser-ala-val-arg-ala] (H-SASVIPVSAVRA-OH) the “Digestive stability (peak of parent peptide in digested samples)” value ([1]; simulated gastric juice pH 2.0 and simulated intestinal fluid pH 7.6, 37°C, 2 h each, MS (TIC chromatography)) was “easily digested”.

For IVVE, the IC50 (ACE; reported peptides) is given as 315 µM.

For SGGSYADELVSTAK, the IC50 (ACE; reported ACE peptide) is given as 0.093 µM.

For CC[C@H](C)[C@H](NC(=O)[C@@H](NC(=O)[C@H](CO)NC(=O)[C@H](C)NC(=O)[C@@H](N)CO)C(C)C)C(=O)N1CCC[C@H]1C(=O)N[C@H](C(=O)N[C@@H](CO)C(=O)N[C@@H](C)C(=O)O)C(C)C [SASVIPVSA] (H-SASVIPVSA-OH), the “Metabolite found in the digestion sample” value ([1]; digestion of SASVIPVSAVRA, simulated gastric juice pH 2.0 and intestinal fluid pH 7.6, 37°C, peak area by MS) was “main metabolite”.

For QLLLQQ, the IC50 (ACE; reported peptides) is given as 75 µM.

With C[C@H](CS)C(=O)N1CCC[C@H]1C(=O)O [captopril] the “Maximum reduction of systolic blood pressure” value [2] was 14.9%.

Molecule SASVIPVSAVRA [ser-ala-ser-val-ile-pro-val-ser-ala-val-arg-ala (…)] has an IC50 of ACE inhibitory activity (substrate HHL, HEPES buffer with 300 mM NaCl, pH 8.3, 37°C, HPLC) [3] of 54.2 μM.

— article PMC9605770, “Molecular docking and antihypertensive effects of a novel angiotensin-I converting enzyme inhibitory peptide from yak bone” (Frontiers in Nutrition, 2022)
